Experimental data taken from patent US7709235B2, “5-Substituted hydantoin racemase, DNA encoding the same, recombinant DNA, transformed cell, and process for production of optically active N-carbamylamino acid or optically active amino acid” (priority 2005, dated 2010).
Positions count from the first letter of the chain named.

T1: hydantoin racemase of Pseudomonas sp. (Pseudomonas sp., UniProt Q00924)
T1 sequence (Q00924 1-249): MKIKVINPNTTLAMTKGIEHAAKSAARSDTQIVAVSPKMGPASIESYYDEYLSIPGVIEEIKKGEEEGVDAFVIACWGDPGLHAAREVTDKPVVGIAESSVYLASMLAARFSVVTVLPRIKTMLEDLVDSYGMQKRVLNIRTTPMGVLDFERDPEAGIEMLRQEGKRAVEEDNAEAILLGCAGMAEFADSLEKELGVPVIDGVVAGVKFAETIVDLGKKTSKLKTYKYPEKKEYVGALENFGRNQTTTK

B1: purified hydantoin racemase: hydantoin racemase from Bacillus sp. KNK519HR, polypeptide with the amino acid sequence of SEQ ID NO: 1 (protein, listed as Bacillus sp.)
chain: T1 sequence (Q00924 1-249) with L138V, T212A, R243L

Tests used:
[1] = system: purified hydantoin racemase; assay: Substrate specificity of purified hydantoin racemase; format: biochemical, Bacillus sp. KNK519HR; conditions: purified enzyme; activity for L-5-(2-methylthioethyl)hydantoin taken at 100; 30° C., Tris-HCl pH 7.5; substrate 4-50 mM
Description: (§1) Substrate specificity of purified hydantoin racemase was examined. First, 0.1 ml of purified hydantoin racemase obtained in Example 1 was added to each 0.9 ml of 50 mM Tris-HCl buffers (pH 7.5) containing 50 mM L-5-(2-methylthioethyl)hydantoin, 50 mM D-5-(2-methylthioethyl)hydantoin, 13 mM D-5-(1-mercapto-1-methyl)ethylhydantoin, 8 mM L-5-isobutylhydantoin, 50 mM L-5-(1-methylpropyl)hydantoin, and 4 mM L-5-benzylhydantoin, respectively. The mixtures were allowed to react at 30° C., and the reaction was terminated by adding 0.1 ml of 1N HCl. Except for the reaction using the substrate D-5-(1-mercapto-1-methyl)ethylhydantoin, the reaction was analyzed by diluting the supernatant of a centrifuged reaction mixture two times with ion exchange water, and by quantifying the D-5-substituted hydantoin compound generated in the reaction mixture, using HPLC. HPLC analysis was performed under the conditions given above. For the reaction using the substrate D-5-(1-mercapto-1-methyl)ethylhydantoin, the reaction mixture was analyzed by quantifying a sample that had been obtained by extracting the reaction mixture with 1 ml of ethyl acetate. Analysis was performed by performing HPLC under the following conditions. Column: CHIRALPAK AD-H (Daicel), eluent: hexane/isopropanol=9/1, flow rate: 1 ml/min., column temperature: 25° C., detection: 210 nm.

[2] = system: hydantoin racemase produced by Bacillus sp. KNK519HR; assay: Substrate specificity with crude enzyme solution of Bacillus sp. KNK519HR (HPLC); format: biochemical; conditions: activity for L-5-isobutylhydantoin taken at 100, 30° C., pH 7.5, HPLC of D-hydantoin
Description: Substrate specificity of hydantoin racemase produced by Bacillus sp. KNK519HR was examined using a crude enzyme solution of Bacillus sp. KNK519HR that was produced according to the procedure described in Example 1. First, 0.1 ml of crude enzyme solution was added to each 0.9 ml of 50 mM Tris-HCl buffers (pH 7.5) containing 4 mM L-5-benzylhydantoin, 50 mM L-5-(2-methylthioethyl)hydantoin, and 8 mM L-5-isobutylhydantoin, respectively. The mixtures were allowed to react at 30° C., and the reaction was terminated by adding 0.1 ml of 1N HCl. The supernatant of a centrifuged reaction mixture was diluted two times with ion exchange water, and the D-5-substituted hydantoin compound generated in the reaction mixture was quantified by HPLC. HPLC analysis was performed under the following conditions. Column: Chirobiotic T (4.6 mm×250 mm, ASTEC Inc., eluent: 0.01% (v/v) Triethylamine acetate (pH 6.8)/methanol=9/1, flow rate: 0.7 ml/min., column temperature: 35° C., detection: 210 nm. Further, 0.1 ml of crude enzyme solution of Bacillus sp. KNK519HR was added to 0.9 ml of 50 mM Tris-HCl buffer (pH 7.5) containing 50 mM 5-methylhydantoin, together with recombinant Escherichia coli having D-form selective hydantoinase activity for 1 ml of culture solution (described later), and recombinant Escherichia coli having D-form selective N-carbamylamino acid amidohydrolase activity for 1 ml of culture solution. The mixture was allowed to react at 30° C., and the reaction was terminated by adding 0.1 ml of 1N HCl. After neutralization with 1N NaOH, the reaction mixture was centrifuged and the D-alanine generated in the supernatant was quantified by an enzyme method using D-amino acid oxydase and peroxydase.

[3] = system: hydantoin racemase enzyme solution of transformant; assay: Substrate specificity of hydantoin racemase of transformant; format: biochemical, Escherichia coli HB101 (pBHR001); conditions: activity for L-5-(2-methylthioethyl)hydantoin taken at 100, method of Example 2
Description: as §1
Using the hydantoin racemase enzyme solution of transformant obtained in Example 7, substrate specificity was examined according to the method of Example 2. The result is shown in Table 4 as relative activities, taking the activity for L-5-(2-methylthioethyl)hydantoin at 100.

[4] = target: T1, hydantoin racemase of Pseudomonas sp.; conditions: Pseudomonas sp. enzyme; proportion of D-form at reaction time 10 minutes; L-5-(2-methylthioethyl)hydantoin = 100; cited from earlier work
[5] = system: hydantoin racemase produced by Bacillus sp. KNK519HR; assay: Substrate specificity with crude enzyme solution coupled with D-hydantoinase and D-N-carbamylamino acid amidohydrolase, D-alanine quantified by enzyme method; format: biochemical; conditions: L-5-isobutylhydantoin = 100, 50 mM substrate
Description: Substrate specificity of hydantoin racemase produced by Bacillus sp. KNK519HR was examined using a crude enzyme solution of Bacillus sp. KNK519HR that was produced according to the procedure described in Example 1. First, 0.1 ml of crude enzyme solution was added to each 0.9 ml of 50 mM Tris-HCl buffers (pH 7.5) containing 4 mM L-5-benzylhydantoin, 50 mM L-5-(2-methylthioethyl)hydantoin, and 8 mM L-5-isobutylhydantoin, respectively. The mixtures were allowed to react at 30° C., and the reaction was terminated by adding 0.1 ml of 1N HCl. The supernatant of a centrifuged reaction mixture was diluted two times with ion exchange water, and the D-5-substituted hydantoin compound generated in the reaction mixture was quantified by HPLC. HPLC analysis was performed under the following conditions. […] After neutralization with 1N NaOH, the reaction mixture was centrifuged and the D-alanine generated in the supernatant was quantified by an enzyme method using D-amino acid oxydase and peroxydase.
Quantification of D-alanine by the enzyme method was performed as follows. […] The mixture was allowed to react for 90 minutes, and an absorbance at 555 nm was measured to quantity the D-alanine generated in the reaction mixture. […]

[6] = system: purified hydantoin racemase; assay: Measurement of Km value (Lineweaver-Burk plot); format: biochemical, Bacillus sp. KNK519HR; conditions: FIG. 2
Description: A Km value for L-5-(2-methylthioethyl)hydantoin was determined from the Lineweaver-Burk plot.

[7] = Effective temperature range, optimum temperature, effective pH range and optimum pH of the enzyme; format: biochemical, Bacillus sp. KNK519HR; conditions: FIG. 3, activity at 40° C. taken at 100%
Description: Assessment was made as to effective temperature range and optimum temperature. FIG. 3 represents relative activities at different temperatures, taking the activity at 40° C. at 100%. The optimum temperature of the enzyme was 40° C., and the enzyme desirably exerted its action at all temperatures in the evaluated temperature range of 25° C. to 65° C.
Assessment was made as to effective pH range and optimum pH. […] The enzyme exerted its action in a pH range of 6 to 10. The optimum pH range was 8 to 9.

[8] = Temperature stability and pH stability of the enzyme (remaining activity); format: physicochemical, Bacillus sp. KNK519HR; conditions: FIG. 5
Description: Temperature stability of enzyme was examined as the remaining activity after 30 minutes of processing at different temperatures.
pH stability was examined. FIG. 6 represents remaining activity of enzyme after processing the enzyme at 30° C. for 16 hours at different pH, taking the activity of untreated enzyme at 100%. The enzyme was relatively stable in a pH range of 4.5 to 8.0.

[9] = Hydantoin racemase activity of purified enzyme, HPLC quantification of D-5-(2-methylthioethyl)hydantoin generated; format: biochemical, Bacillus sp. KNK519HR; conditions: 30° C., 30 minutes, 50 mM Tris-HCl buffer (pH 7.5), 50 mM L-5-(2-methylthioethyl)hydantoin; 1 unit = 1 μmol D-form per minute
Description: In an embodiment of the present invention, the hydantoin racemase activity of the polypeptide can be measured by, for example, quantification of D-5-(2-methylthioethyl)hydantoin generated at 30° C. in 30 minutes in 50 mM Tris (tris(hydroxymethyl)aminomethane)-HCl buffer (pH 7.5) containing 50 mM L-5-(2-methylthioethyl)hydantoin, using high-performance liquid chromatography (HPLC) or the like.
The activity of the purified hydantoin racemase was determined by HPLC, by quantifying the amount of increase of D-5-(2-methylthioethyl)hydantoin generated at 30° C. in 30 minutes in a 50 mM Tris-HCl buffer (pH 7.5) containing 50 mM L-5-(2-methylthioethyl)hydantoin. HPLC analysis was performed under the following conditions. Column: Chirobiotic T (4.6 mm×250 mm, ASTEC Inc.), eluent: 0.01% (v/v) triethylamine acetate (pH 6.8)/methanol=9/1, flow rate: 0.7 ml/min., column temperature: 35° C., detection: 210 nm. Here, 1 unit was defined as the amount of enzyme that generated 1 μmol D-5-(2-methylthioethyl)hydantoin in one minute. Quantification of protein was performed according to the Lowry method, using BSA as a standard.

[10] = Substrate inhibition of hydantoin racemase (crude enzyme solution); format: biochemical, Bacillus sp. KNK519HR; conditions: L-5-(2-methylthioethyl)hydantoin as substrate between 50 mM and 80 mM; initial rate, 30° C., FIG. 7
Description: Substrate inhibition of the hydantoin racemase produced by Bacillus sp. KNK519HR was examined using the crude enzyme solution prepared in Example 1. In a reaction mixture of 0.1-ml crude enzyme solution and each 0.9-ml of 50 mM Tris-HCl buffers (pH 7.5) respectively containing 5, 10, 50, and 80 mM L-5-(2-methylthioethyl)hydantoin, respectively, the reaction was performed at 30° C. for 10, 20, 30, and 40 minutes. After the reaction, hydantoin racemase activity was abolished by adding 0.1 ml of 1N HCl. The supernatant of the centrifuged reaction mixture was diluted two times with ion exchange water, and the D-5-(2-methylthioethyl)hydantoin generated in the reaction mixture was quantified by HPLC. HPLC analysis was performed under the same conditions used in Example 3. An initial reaction rate was determined at each initial substrate concentration. FIG. 7 represents a relationship between relative activity and initial substrate concentration.

Row | Molecule | Relative Activity [1] | Relative Activity [2] | Relative Activity [3] | other results
1 | O=C1NC(=O)[C@H](Cc2ccccc2)N1 [L-5-benzylhydantoin] | 52 | 35 | 35 | –
2 | CC(C)C[C@@H]1NC(=O)NC1=O [L-5-isobutylhydantoin] | 173 | 100 | 174 | –
3 | CSCC[C@H]1NC(=O)NC1=O [D-5-(2-methylthioethyl)hydantoin] | 49 | – | 52 | –
4 | CCC(C)[C@@H]1NC(=O)NC1=O (stereo partly drawn) [L-5-(1-methylpropyl)hydantoin] | 2 | – | 2 | Relative Activity [4]: 132
5 | C[C@@H]1NC(=O)NC1=O [L-5-methylhydantoin] | – | – | – | Relative Activity [5]: 20
6 | CSCC[C@@H]1NC(=O)NC1=O [L-5-(2-methylthioethyl)hydantoin] | 100 | 61 | 100 | Km [6]: 304 µM; Relative Activity [4]: 100
7 | CC(C)(S)C1NC(=O)NC1=O [D-5-(1-mercapto-1-methyl)ethylhydantoin] | 25 | – | 9 | –
8 | B1 | – | – | – | optimum temperature [7]: 40 °C; remaining activity (temperature stability) ([8]; after 30 minutes of processing at 30° C.): 80%; remaining activity (temperature stability) ([8]; after 30 minutes of processing at 70° C.): almost all activity was lost; specific activity [9]: 24.2 unit/mg protein; substrate inhibition [10]: had substrate inhibition
